Source: patent US5773459A, “Urea- and thiourea-type compounds” (Sugen, Inc., priority 1995, dated 1998)
Like-named read-outs stand apart in the source and are kept apart here.

System: 3T3/IGF-1R cells
Test: IGF-1 Receptor Growth Assay (3T3/IGF-1R cells, SRB)
Assay type: cell-based
Procedure: Sulforhodamine B (SRB) Assay for Adherent Cells
Sulforhodamine B assays for measuring effects of TBST compounds on cell growth were based on procedures described by Skehan et al. J. Natl. Cancer Inst. 82:1107, 1990 incorporated herein by reference in its entirety, including any drawings. Unless otherwise stated the assays were carried out aseptically as follows:
IGF-1 Receptor Growth Assay
Cell lines: 3T3/IGF-1 R (10% FBS/2 mM glutamine/DMEM) NIH 3T3 c7 (10% calf serum/2 mM glutamine/DMEM) NOTE: NIH 3T3 cells (and cells derived from them) should never be allowed to become confluent because this increases the chance of spontaneous transformation. If they show signs of being transformed (morphological changes, piling up, moving into clumps), throw them away and thaw a fresh batch.
Materials: 10% FBS/2 mM glutamine/DMEM 0.5% FBS/2 mM glutamine/DMEM 10% calf serum/2 mM glutamine/DMEM IGF-1, 5 μM in sterile PBS (Promega/Fisher cat. #G5111) DMSO, tissue culture grade (Sigma cat. #D 2650) Hits from screen 11, 100 mM in DMSO 96-well plates, flat and round bottom 8 channel pipettor and sterile tips sterile reagent reservoirs sterile tubes (1.5 or 15 ml)
Methods (carry all steps out under asceptic conditions until fixing the cells for the SRB assay):
Day 0: Cell Plating--Trypsinize and count 3T3/IGF-1R and NIH 3T3 c7 cells. Dilute in growth media to 2000 cells/200 μl and seed flat bottom 96-well plates with 200 μl/well, one plate for two compounds for each cell line.
Day 1: Compound preparation--Add DMSO to each compound to make 100 mM stock solutions.
Aliquot each compound to 3-4 sterile screw cap tubes and store at -20° C. After thawing, make sure the compound has gone completely back into solution. Throw away after 3 freeze/thaws.
3T3/IGF-1R cells--For each 96-well plate, make 15 ml of 10 nM IGF-1/0.5% FBS/2 mM glutamine/DMEM (30 μl of 5 μM IGF-1/15 ml).
Aliquot 1.5 ml 10 nM IGF-1/0.5% FBS to a sterile tube for each compound to be tested (the first time a compound is tested, use a 15 ml tube in case it is necessary to add extra medium to get it into solution).
Add 3 μl of 100 mM stock of each compound to a tube so 200 μM final. Shake or vortex until it goes into solution. If it is necessary to add additional medium, note the final concentration.
For the DMSO control, prepare 0.5 ml/plate of 0.2% DMSO/10 nM IGF-1/0.5% FBS (2 μl DMSO/ml).
For every two compounds, aliquot 130 μl 10 nM IGF-1/0.5% FBS to wells in columns 2-11 of a 96-well round bottom plate.
Add 260 μl of each compound to four wells in column 12.
Do 2-fold dilutions (130 μl) from columns 12 to 3 on each plate (column 2 will be for the untreated control), mixing thoroughly.
Remove medium from 3T3/IGF-1 R cells, one plate at a time. […]

[1] = read-out: GROWTH DATA: 3T3/IGF1R-0.5% FBS
[2] = read-out: GROWTH DATA: 3T3/IGF1R-10% FBS

SMILES	IC50 [1] [µM]	IC50 [2] [µM]
O=C(Nc1ccc(SC(F)(F)F)cc1)Nc1ccc(Oc2ccc(Cl)cc2Cl)nc1 [Example Z3]	0.6	18
CC(C)S(=O)(=O)c1csc(NC(=O)Nc2cc(C(F)(F)F)cc(C(F)(F)F)c2)c1Cl [Example Z2, N-[3-Chloro-4-(isopropylsulfonyl)thien-2-yl]-N'-(3,5-di-trifluoromethylphenyl)urea]	0.7	20
